Assay results: patent publication US10111854B2, “Synthesis and use of amine-containing flavonoids as potent anti-leishmanial agents” (The Hong Kong Polytechnic University, priority 2014, dated 2018)

Columns and labels:
[1] = system: L. donovani Ld39 promastigotes; test: Anti-promastigote activity (MTS assay), L. donovani Ld39; type: cell-based; conditions: Leishmania donovani, 72 hours
Outline: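 Promastigotes (1×10^5 per well) in Schneider's medium pH 6.9 with 10% FBS, exposed to serial compound concentrations for 72 h at 27 °C. Viability by MTS/PMS reduction over 4 h, OD 490 nm; IC50 derived.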

[2] = Cytotoxicity, L929 fibroblasts; type: cell-based, mouse; conditions: mouse
Method: IC50 values of known antileishmanials and the amine-containing flavonoid monomers of the present invention to promastigotes (L. amazonensis LV78, L major FV1, L. donovani HU3, L. donovani 39), macrophages (Raw 264.7 and PEM) and mouse fibroblast (L929) were determined. The anti-promastigotes activities and cytotoxicity of the amine-containing flavonoid monomers of the invention are shown in Table 1.

[3] = Cytotoxicity, peritoneal elicited macrophages (PEM); type: cell-based, mouse; conditions: mouse, Cytotoxicity IC50, PEM
[4] = system: L. amazonensis LV78 amastigotes; test: Anti-amastigote activity in infected PEM, L. amazonensis LV78; type: cell-based; conditions: for Selective index (a)/(b): IC50 RAW264.7 over IC50 L. amazonensis LV78 amastigotes; for IC50: Leishmania amazonensis, 72 h, infected PEM, 3 days, Giemsa
Outline: (§1)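 Macrophages elicited from mouse peritoneum were allowed to adhere overnight, then infected with late-log promastigotes at a 20:1 ratio at 37 °C. After removal of non-internalized parasites, cells were incubated with compound for 3 days. Amastigote burden was scored microscopically after Giemsa staining.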

[5] = system: L. donovani HU3 amastigotes; test: Anti-amastigote activity in infected PEM, L. donovani HU3; type: cell-based; conditions: for Selective index (a)/(b): IC50 RAW264.7 over IC50 L. donovani HU3 amastigotes; for IC50: Leishmania donovani, 72 h, infected PEM, 3 days, Giemsa, SSG-sensitive
Outline: as §1

[6] = system: L. donovani Ld39 amastigotes (SSG-resistant); test: Anti-amastigote activity in infected PEM, L. donovani Ld39; type: cell-based; conditions: for Selective index (a)/(c): IC50 RAW264.7 over IC50 L. donovani Ld39 amastigotes; for IC50: Leishmania donovani, 72 h, infected PEM, 3 days, Giemsa, SSG-resistant
Outline: as §1

RAW264.7 cells = test: Reactive oxygen species (ROS) level, DCFDA, RAW264.7; type: cell-based, murine; conditions: for ROS induction in macrophages: RAW264.7
Outline: (§2)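 RAW264.7 macrophages or L. amazonensis promastigotes pre-loaded 1 h with 10 μM DCFDA (37 °C and 27 °C respectively), washed, then exposed to compounds (10 or 30 μM in macrophages; 30 μM in promastigotes). DCF fluorescence (ex 485 nm) read at 2–72 h, background from unstained cells subtracted.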

[7] = system: L. amazonensis LV78 promastigotes; test: Reactive oxygen species (ROS) level, DCFDA, promastigotes; type: cell-based; conditions: 30 μM
Outline: as §2

Row | Structure (SMILES) | IC50 [1] [nM] | IC50 [2] [nM] | IC50 [3] [nM] | Selective index (a)/(b) [4] | IC50 [4] [nM] | Selective index (a)/(b) [5] | IC50 [5] [nM] | Selective index (a)/(c) [6] | IC50 [6] [nM] | RAW264.7 ROS Level, Relative fold (RF) (RAW264.7 cells; 10 μM, 2 hr) [fold] | RAW264.7 ROS Level, Relative fold (RF) (RAW264.7 cells; 10 μM, 4 hr) [fold] | RAW264.7 ROS Level, Relative fold (RF) (RAW264.7 cells; 10 μM, 6 hr) [fold] | RAW264.7 ROS Level, Relative fold (RF) (RAW264.7 cells; 10 μM, 8 hr) [fold] | RAW264.7 ROS Level, Relative fold (RF) (RAW264.7 cells; 10 μM, 20 hr) [fold] | ROS induction in macrophages (RAW264.7 cells; 10 μM) | RAW264.7 ROS Level, Relative fold (RF) (RAW264.7 cells; 30 μM, 2 hr) [fold] | RAW264.7 ROS Level, Relative fold (RF) (RAW264.7 cells; 30 μM, 4 hr) [fold] | RAW264.7 ROS Level, Relative fold (RF) (RAW264.7 cells; 30 μM, 6 hr) [fold] | RAW264.7 ROS Level, Relative fold (RF) (RAW264.7 cells; 30 μM, 20 hr) [fold] | RAW264.7 ROS Level, Relative fold (RF) (RAW264.7 cells; 30 μM, 46 hr) [fold] | also measured
1 | O=c1cc(-c2ccc(OCCOCCN(Cc3ccccn3)Cc3ccccn3)cc2)oc2ccccc12 [FM09, 2-(4-(2-(2-(bis(pyridin-2-ylmethyl)amino)ethoxy)ethoxy)phenyl)-4H-chromen-4-one] | 500 ± 100 | > 33000 | 22000 | 63 | 300 | 47.3 | 400 | >51.1 | < 370 | 1.1 | 1.1 | 1.0 | 1.0 | 1.1 | No ROS induction | 1.3 | 1.4 | 1.3 | 1.4 | 2.1 | L. amazon LV78 promastigote ROS Level, Relative fold (RF) ([7]; 2 hr): 2.0 fold; L. amazon LV78 promastigote ROS Level, Relative fold (RF) ([7]; 4 hr): 2.1 fold; L. amazon LV78 promastigote ROS Level, Relative fold (RF) ([7]; 6 hr): 2.3 fold; L. amazon LV78 promastigote ROS Level, Relative fold (RF) ([7]; 20 hr): 3.2 fold; L. amazon LV78 promastigote ROS Level, Relative fold (RF) ([7]; 46 hr): 4.3 fold; L. amazon LV78 promastigote ROS Level, Relative fold (RF) ([7]; 72 hr): 6.2 fold
2 | O=c1cc(-c2ccc(OCCOCCN(CCOCCOc3ccc(-c4cc(=O)c5ccccc5o4)cc3)Cc3ccncc3)cc2)oc2ccccc12 [compound 39] | 210 ± 60 | 26400 | > 100000 | 232.6 | 430 | >500 | 200 ± 60 | 47.6 | 210 ± 60 | 0.9 | 0.9 | 0.9 | 0.8 | 0.9 | No ROS induction | 1.3 | 1.4 | 1.3 | 1.3 | 1.4 | L. amazon LV78 promastigote ROS Level, Relative fold (RF) ([7]; 2 hr): 1.3 fold; L. amazon LV78 promastigote ROS Level, Relative fold (RF) ([7]; 4 hr): 1.3 fold; L. amazon LV78 promastigote ROS Level, Relative fold (RF) ([7]; 6 hr): 1.3 fold; L. amazon LV78 promastigote ROS Level, Relative fold (RF) ([7]; 20 hr): 1.6 fold; L. amazon LV78 promastigote ROS Level, Relative fold (RF) ([7]; 46 hr): 1.4 fold; L. amazon LV78 promastigote ROS Level, Relative fold (RF) ([7]; 72 hr): 1.6 fold
